According to patent US12152024B2, “Pesticidally active heterocyclic derivatives with sulphur and hydroxylamine substituents” (SYNGENTA PARTICIPATIONS AG, priority 2016, dated 2024):

What was measured:
Type in all cases: in vivo
[1] = tested on: Euschistus heros (Neotropical Brown Stink Bug); assay: Activity against Euschistus heros (neotropical brown stink bug), soybean leaves sprayed; details: 120 h, application rate 200 ppm, N2 nymphs, 5 days after infestation, read-out: effect in at least one of the two categories (mortality or growth inhibition)
Procedure: Soybean leaves on agar in 24-well microtiter plates were sprayed with aqueous test solutions prepared from 10′000 ppm DMSO stock solutions. After drying the leaves were infested with N2 nymphs. The samples were assessed for mortality and growth inhibition in comparison to untreated samples 5 days after infestation.

[2] = tested on: Myzus persicae (Green Peach Aphid); assay: Activity against Myzus persicae (green peach aphid): feeding/contact activity; details: for mortality at 200 ppm: Myzus persicae, 144 h, application rate 200 ppm, feeding/contact, mixed ages, 6 days after infestation
Procedure: Sunflower leaf discs were placed onto agar in a 24-well microtiter plate and sprayed with aqueous test solutions prepared from 10′000 ppm DMSO stock solutions. After drying, the leaf discs were infested with an aphid population of mixed ages. The samples were assessed for mortality 6 days after infestation.

[3] = tested on: Diabrotica balteata (corn root worm); assay: Activity against Diabrotica balteata (corn root worm), maize sprouts sprayed; details: for percent effect (mortality or growth inhibition) at 200 ppm: 96 h, application rate 200 ppm, L2 larvae, 4 days after infestation, read-out: effect in at least one of the two categories (mortality or growth inhibition)
Procedure: Maize sprouts placed onto an agar layer in 24-well microtiter plates were treated with aqueous test solutions prepared from 10′000 ppm DMSO stock solutions by spraying. After drying, the plates were infested with L2 larvae (6 to 10 per well). The samples were assessed for mortality and growth inhibition in comparison to untreated samples 4 days after infestation.

[4] = tested on: Plutella xylostella (Diamond Back Moth); assay: Activity against Plutella xylostella (diamond back moth), artificial diet; details: for percent effect (mortality or growth inhibition) at 200 ppm: 120 h, application rate 200 ppm, L2 larvae, 5 days after infestation, read-out: effect in at least one of the two categories (mortality or growth inhibition)
Procedure: 24-well microtiter plates with artificial diet were treated with aqueous test solutions prepared from 10′000 ppm DMSO stock solutions by pipetting. After drying, the plates were infested with L2 larvae (10 to 15 per well). The samples were assessed for mortality and growth inhibition in comparison to untreated samples 5 days after infestation.

[5] = tested on: Bemisia tabaci (Cotton White Fly); assay: Activity against Bemisia tabaci (cotton white fly); details: 144 h, application rate 200 ppm, adult white flies, 6 days after incubation
Procedure: Cotton leaf discs were placed on agar in 24-well microtiter plates and sprayed with aqueous test solutions prepared from 10′000 ppm DMSO stock solutions. After drying the leaf discs were infested with adult white flies. The samples were checked for mortality 6 days after incubation.

[6] = tested on: Myzus persicae (Green Peach Aphid); assay: Activity against Myzus persicae (green peach aphid): systemic activity; details: for mortality at 24 ppm: Myzus persicae, 144 h, test rate 24 ppm, systemic, pea seedling roots in test solution, 6 days
Procedure: Roots of pea seedlings infested with an aphid population of mixed ages were placed directly into aqueous test solutions prepared from 10′000 DMSO stock solutions. The samples were assessed for mortality 6 days after placing seedlings into test solutions.

[7] = tested on: Spodoptera littoralis (Egyptian Cotton Leaf Worm); assay: Activity against Spodoptera littoralis (Egyptian cotton leaf worm), cotton leaf discs sprayed; details: for percent control (mortality, anti-feedant effect or growth inhibition) at 200 ppm: foliar, 72 h, application rate 200 ppm, L1 larvae, 3 days after infestation, read-out: control (mortality, anti-feeding effect or growth inhibition)
Procedure: Cotton leaf discs were placed onto agar in 24-well microtiter plates and sprayed with aqueous test solutions prepared from 10′000 ppm DMSO stock solutions. After drying the leaf discs were infested with five L1 larvae. The samples were assessed for mortality, anti-feeding effect, and growth inhibition in comparison to untreated samples 3 days after infestation. Control of Spodoptera littoralis by a test sample is given when at least one of the categories mortality, anti-feedant effect, and growth inhibition is higher than the untreated sample.

Work on `CCS(=O)(=O)c1cc(Br)cnc1-c1nc2cc(C(F)(F)F)n(OC)c(=O)c2n1C` [Compound A17, 2-(5-bromo-3-ethylsulfonyl-2-pyridyl)-5-methoxy-3-methyl-6-(trifluoromethyl)imidazo[4,5-c]pyridin-4-one] yielded a percent effect (mortality or growth inhibition) at 200 ppm [1] of at least 80%, a mortality at 200 ppm [2] of at least 80% and a percent effect (mortality or growth inhibition) at 200 ppm [3] of at least 80%. The percent effect (mortality or growth inhibition) at 200 ppm [4] was at least 80%, the mortality at 200 ppm [5] was at least 80% and the mortality at 24 ppm [6] was at least 80%. It also gave a percent control (mortality, anti-feedant effect or growth inhibition) at 200 ppm [7] of at least 80%.

`CCSc1cc(C(C)(C)C#N)cnc1-c1nc2cc(C(F)(F)F)n(OC)c(=O)c2n1C` [Compound A24, 2-[5-ethylsulfanyl-6-[5-methoxy-3-methyl-4-oxo-6-(trifluoromethyl)imidazo[4,5-c]pyridin-2-yl]-3-pyridyl]-2-methyl-propanenitrile] showed a percent effect (mortality or growth inhibition) at 200 ppm [1] of at least 80%, a percent effect (mortality or growth inhibition) at 200 ppm [3] of at least 80% and a percent effect (mortality or growth inhibition) at 200 ppm [4] of at least 80%.

Work on `CCS(=O)(=O)c1cc(C(C)(C)C#N)ccc1-c1nc2cc(C(F)(F)F)n(OC)c(=O)c2n1C` [Compound A15, 2-[3-ethylsulfonyl-4-[5-methoxy-3-methyl-4-oxo-6-(trifluoromethyl)imidazo[4,5-c]pyridin-2-yl]phenyl]-2-methyl-propanenitrile] yielded a percent effect (mortality or growth inhibition) at 200 ppm [1] of at least 80%, a mortality at 200 ppm [2] of at least 80% and a percent effect (mortality or growth inhibition) at 200 ppm [3] of at least 80%. For the same compound, the percent effect (mortality or growth inhibition) at 200 ppm [4] was at least 80%, the mortality at 200 ppm [5] was at least 80% and the mortality at 24 ppm [6] was at least 80%.

`CCSc1cccnc1-c1nc2cc(C(F)(F)F)n(OC)c(=O)c2n1C` [Compound A1, 2-(3-ethylsulfanyl-2-pyridyl)-5-methoxy-3-methyl-6-(trifluoromethyl) imidazo[4,5-c]pyridin-4-one] gave a mortality at 200 ppm [2] of at least 80%, a percent effect (mortality or growth inhibition) at 200 ppm [3] of at least 80% and a percent effect (mortality or growth inhibition) at 200 ppm [4] of at least 80%. It also gave a percent control (mortality, anti-feedant effect or growth inhibition) at 200 ppm [7] of at least 80%.

With `CCS(=O)(=O)c1cc(C(F)(F)F)cnc1-c1nc2cc(C(F)(F)F)n(OC)c(=O)c2n1C` [Compound A6, 2-[3-ethylsulfonyl-5-(trifluoromethyl)-2-pyridyl]-5-methoxy-3-methyl-6-(trifluoromethyl)imidazo[4,5-c]pyridin-4-one] the percent effect (mortality or growth inhibition) at 200 ppm [1] was at least 80%, the mortality at 200 ppm [2] was at least 80% and the percent effect (mortality or growth inhibition) at 200 ppm [3] was at least 80%. The percent effect (mortality or growth inhibition) at 200 ppm [4] was at least 80%, the mortality at 24 ppm [6] was at least 80% and the percent control (mortality, anti-feedant effect or growth inhibition) at 200 ppm [7] was at least 80%.

Compound `CCSc1cc(C(C)(C)C#N)ccc1-c1nc2cc(C(F)(F)F)n(OC)c(=O)c2n1C` [Compound A25, 2-[3-ethylsulfanyl-4-[5-methoxy-3-methyl-4-oxo-6-(trifluoromethyl)imidazo[4,5-c]pyridin-2-yl]phenyl]-2-methyl-propanenitrile] has a percent effect (mortality or growth inhibition) at 200 ppm [1] of at least 80% and a percent effect (mortality or growth inhibition) at 200 ppm [3] of at least 80%.

Work on `CCSc1cc(C(F)(F)F)cnc1-c1nc2cc(C(F)(F)F)n(OC)c(=O)c2n1C` [Compound A21, 2-[3-ethylsulfanyl-5-(trifluoromethyl)-2-pyridyl]-5-methoxy-3-methyl-6-(trifluoromethyl)imidazo[4,5-c]pyridin-4-one] yielded a percent effect (mortality or growth inhibition) at 200 ppm [1] of at least 80%, a mortality at 200 ppm [2] of at least 80% and a percent effect (mortality or growth inhibition) at 200 ppm [3] of at least 80%. For the same compound, the percent effect (mortality or growth inhibition) at 200 ppm [4] was at least 80% and the percent control (mortality, anti-feedant effect or growth inhibition) at 200 ppm [7] was at least 80%.

In the case of `CCS(=O)(=O)c1ccc(N)nc1-c1nc2cc(C(F)(F)F)n(OC)c(=O)c2n1C` [Compound A13, 2-(6-amino-3-ethylsulfonyl-2-pyridyl)-5-methoxy-3-methyl-6-(trifluoromethyl)imidazo[4,5-c]pyridin-4-one], the percent effect (mortality or growth inhibition) at 200 ppm [1] was at least 80%, the mortality at 200 ppm [2] was at least 80% and the percent effect (mortality or growth inhibition) at 200 ppm [3] was at least 80%. The percent effect (mortality or growth inhibition) at 200 ppm [4] was at least 80%, the mortality at 200 ppm [5] was at least 80% and the mortality at 24 ppm [6] was at least 80%. For the same compound, the percent control (mortality, anti-feedant effect or growth inhibition) at 200 ppm [7] was at least 80%.

Work on `CCS(=O)(=O)c1ccc(-n2nccn2)nc1-c1nc2cc(C(F)(F)F)n(OC)c(=O)c2n1C` [Compound A5, 2-[3-ethylsulfonyl-6-(triazol-2-yl)-2-pyridyl]-5-methoxy-3-methyl-6-(trifluoromethyl)imidazo[4,5-c]pyridin-4-one] yielded a percent effect (mortality or growth inhibition) at 200 ppm [1] of at least 80%, a mortality at 200 ppm [2] of at least 80% and a percent effect (mortality or growth inhibition) at 200 ppm [3] of at least 80%. For the same compound, the percent effect (mortality or growth inhibition) at 200 ppm [4] was at least 80%, the mortality at 24 ppm [6] was at least 80% and the percent control (mortality, anti-feedant effect or growth inhibition) at 200 ppm [7] was at least 80%.

`CCS(=O)(=O)c1ccccc1-c1nc2cc(C(F)(F)F)n(OC)c(=O)c2n1C` [Compound A7, 2-(2-ethylsulfonylphenyl)-5-methoxy-3-methyl-6-(trifluoromethyl)imidazo[4,5-c]pyridin-4-one] showed a percent effect (mortality or growth inhibition) at 200 ppm [1] of at least 80%, a mortality at 200 ppm [2] of at least 80% and a percent effect (mortality or growth inhibition) at 200 ppm [3] of at least 80%. It also gave a percent effect (mortality or growth inhibition) at 200 ppm [4] of at least 80%, a mortality at 24 ppm [6] of at least 80% and a percent control (mortality, anti-feedant effect or growth inhibition) at 200 ppm [7] of at least 80%.

In the case of `CCS(=O)(=O)c1cccnc1-c1nc2cc(C(F)(F)F)n(OC)c(=O)c2n1C` [drawing 144, reference compound], the “Mortality (%)” value ([2]; Myzus persicae (feeding/contact), concentration 50 ppm) was 50%, the “Mortality (%)” value ([3]; concentration 50 ppm) was 0% and the “Mortality (%)” value ([4]; concentration 12.5 ppm) was 0%. For the same compound, the “Mortality (%)” value ([6]; Myzus persicae (systemic), concentration 1.5 ppm) was 0% and the “Mortality (%)” value ([7]; concentration 12.5 ppm) was 0%.

`CCS(=O)(=O)c1cc(Br)c(N)nc1-c1nc2cc(C(F)(F)F)n(OC)c(=O)c2n1C` [Compound A16, 2-(6-amino-5-bromo-3-ethylsulfonyl-2-pyridyl)-5-methoxy-3-methyl-6-(trifluoromethyl)imidazo[4,5-c]pyridin-4-one] showed a percent effect (mortality or growth inhibition) at 200 ppm [1] of at least 80%, a mortality at 200 ppm [2] of at least 80% and a percent effect (mortality or growth inhibition) at 200 ppm [3] of at least 80%. It also gave a percent effect (mortality or growth inhibition) at 200 ppm [4] of at least 80% and a percent control (mortality, anti-feedant effect or growth inhibition) at 200 ppm [7] of at least 80%.

In the case of `CCSc1cc(Br)cnc1-c1nc2cc(C(F)(F)F)n(OC)c(=O)c2n1C` [Compound A19, 2-(5-bromo-3-ethylsulfanyl-2-pyridyl)-5-methoxy-3-methyl-6-(trifluoromethyl)imidazo[4,5-c]pyridin-4-one], the percent effect (mortality or growth inhibition) at 200 ppm [1] was at least 80%, the mortality at 200 ppm [2] was at least 80% and the percent effect (mortality or growth inhibition) at 200 ppm [3] was at least 80%. The percent effect (mortality or growth inhibition) at 200 ppm [4] was at least 80% and the percent control (mortality, anti-feedant effect or growth inhibition) at 200 ppm [7] was at least 80%.

Work on `CCSc1cc(C2(C#N)CC2)ccc1-c1nc2cc(C(F)(F)F)n(OC)c(=O)c2n1C` [Compound A23, 1-[3-ethylsulfanyl-4-[5-methoxy-3-methyl-4-oxo-6-(trifluoromethyl)imidazo[4,5-c]pyridin-2-yl]phenyl]cyclopropanecarbonitrile] yielded a percent effect (mortality or growth inhibition) at 200 ppm [1] of at least 80%, a percent effect (mortality or growth inhibition) at 200 ppm [3] of at least 80% and a percent effect (mortality or growth inhibition) at 200 ppm [4] of at least 80%. It also gave a percent control (mortality, anti-feedant effect or growth inhibition) at 200 ppm [7] of at least 80%.

In the case of `CCSc1ccccc1-c1nc2cc(C(F)(F)F)n(OC)c(=O)c2n1C` [Compound A22, 2-(2-ethylsulfanylphenyl)-5-methoxy-3-methyl-6-(trifluoromethyl)imidazo[4,5-c]pyridin-4-one], the percent effect (mortality or growth inhibition) at 200 ppm [1] was at least 80%, the mortality at 200 ppm [2] was at least 80% and the percent effect (mortality or growth inhibition) at 200 ppm [3] was at least 80%. It also gave a percent effect (mortality or growth inhibition) at 200 ppm [4] of at least 80%, a mortality at 24 ppm [6] of at least 80% and a percent control (mortality, anti-feedant effect or growth inhibition) at 200 ppm [7] of at least 80%.
